Values after ≈ are worked out from the molar mass of the structure shown.
settings: buffer; pH 7.4; 200.0 µM

Compared with `O=C(/C=C/c1ccc(F)cc1)N1CCN(Cc2ccccc2)CC1`, `Cc1ccc(N(C)S(=O)(=O)c2cccc(C(=O)N3CCN(Cc4ccccc4)CC3)c2)cc1` is 1.9-fold lower in solubility kinetic: 44.5 µg/mL (≈ 137 µM) for the first, 23 µg/mL (≈ 49.6 µM) for the second.

First: O=C(NC(=S)NCc1ccco1)c1ccc([N+](=O)[O-])cc1
Second: COC(=O)c1ccc(CO/N=C/c2cccc([N+](=O)[O-])c2)cc1
The solubility kinetic of the first is higher: 4.6 µg/mL (≈ 15.1 µM) for the first, under 0.3 µg/mL for the second.

Compared with `O=C(Nc1ccc(F)cc1)NC1CCCc2ccccc21` (stereo unspecified), `O=C(Nc1ccc(C2SCCS2)cc1)c1ccccc1` is 2-fold higher in solubility kinetic: 0.7 µg/mL (≈ 2.46 µM) for the first, 1.4 µg/mL (≈ 4.64 µM) for the second.

Going from `CNC(=O)Cc1csc2ccc(C)cc12` to `Cc1csc(NC(=O)c2ccc(=O)[nH]c2)n1`, the solubility kinetic rises from 30.4 µg/mL (≈ 139 µM) to over 35.3 µg/mL.

`CC(C)(C)NCC(O)COc1cccc2[nH]c(=O)[nH]c12.Cl` (stereo unspecified) and `O=c1cc(C(F)(F)F)[nH]c2c(OC(F)(F)F)cccc12` cannot be ordered by solubility kinetic: over 47.4 µg/mL for the first, over 44.6 µg/mL for the second.

`O=C(Nc1cccnc1)c1cccc(S(=O)(=O)N2CCCC2)c1` and `Cc1ccc(C)c(S(=O)(=O)N2CCN(C(=O)c3cccnc3)CC2)c1` cannot be ordered by solubility kinetic: over 49.7 µg/mL for the first, 50.8 µg/mL (≈ 141 µM) for the second.

First: O=C(OCc1ccc([N+](=O)[O-])cc1)C1CC(=O)N(Cc2ccccc2)C1 (stereo unspecified)
Second: COc1ccc(/C=C/C(=O)OCc2cccc([N+](=O)[O-])c2)cc1
The solubility kinetic of the first is higher: over 53.2 µg/mL for the first, under 0.7 µg/mL for the second.

`O=C(OCC(=O)N1CCc2ccccc21)c1ccccn1` and `CN(CC(=O)Nc1ccccc1)CC(=O)Nc1ccccc1Cl` cannot be ordered by solubility kinetic: over 42.3 µg/mL for the first, over 49.8 µg/mL for the second.

First: O=C(CSc1nncn1-c1ccccc1)NC1CCCC1
Second: N#C/C(=C\c1c[nH]c2ccccc12)C(=O)NC1CCCC1
The solubility kinetic of the first is higher: over 45.4 µg/mL for the first, 1.8 µg/mL (≈ 6.44 µM) for the second.

First: Cc1ccc2nc3cc([N+](=O)[O-])cc([N+](=O)[O-])c3cc2c1
Second: Cc1nc2ccc(Cl)cc2c(=O)n1-c1ccccc1Cl
The solubility kinetic of the first is 13-fold lower: 0.8 µg/mL (≈ 2.82 µM) for the first, 10.4 µg/mL (≈ 34.1 µM) for the second.

Compared with `CC1CN(C(=O)c2cc3cc([N+](=O)[O-])ccc3s2)CC(C)O1` (stereo unspecified), `O=c1sc2ccccc2c(N2CCCC2)c1[N+](=O)[O-]` is higher in solubility kinetic: 18.5 µg/mL (≈ 57.7 µM) for the first, over 41.4 µg/mL for the second.

Going from `Cc1cc(C)c(S(=O)(=O)NC2CC3CCC2C3)c(C)c1` (stereo unspecified) to `Cc1cc(C)c(C)c(S(=O)(=O)Nc2ccccc2N2CCOCC2)c1C`, the solubility kinetic rises from under 0.6 µg/mL to 1.7 µg/mL (≈ 4.54 µM).

`COc1ccc(CNC(=S)Nc2cccc(OC)c2)cc1` and `Cc1cccc(NC(=S)NCc2ccccc2)c1C` are within 1.5-fold of each other in solubility kinetic: 41.1 µg/mL (≈ 136 µM) for the first, 35.1 µg/mL (≈ 130 µM) for the second.

`CC(OC(=O)C1CC1)C(=O)Nc1cc(Cl)cc(Cl)c1` (stereo unspecified) and `CC(OC(=O)CN1C(=O)c2ccccc2C1=O)C(=O)NC1CCCC1` (stereo unspecified) cannot be ordered by solubility kinetic: over 45.3 µg/mL for the first, over 51.7 µg/mL for the second.

First: CCCCCCCN1C2=NCCN2c2ccccc21.Cl
Second: COc1ccc(C(=O)CN2C(=O)COc3ccccc32)cc1
The solubility kinetic of the first is higher: over 44.1 µg/mL for the first, 43.1 µg/mL (≈ 145 µM) for the second.

Going from `Cc1ccccc1-n1c(=S)[nH]c2nc3c(cc2c1=O)COC(C)(C)C3` to `COc1ccccc1-c1nc2ccccc2c(=O)n1O`, the solubility kinetic rises from 30.7 µg/mL (≈ 86.9 µM) to over 40.2 µg/mL.

Going from `O=C(Nc1ccccc1)Nc1ccc(Nc2ccccc2)cc1` to `Cc1ccccc1NC(=O)NCCCCc1ccccc1`, the solubility kinetic rises from under 0.2 µg/mL to 1.5 µg/mL (≈ 5.31 µM).

`CC(=O)Nc1ccccc1` and `Cc1ccccc1NC(=O)c1cc2ccccc2o1` cannot be ordered by solubility kinetic: over 20.3 µg/mL for the first, 33.7 µg/mL (≈ 134 µM) for the second.

Compared with `CCN(CC)C(=O)N[C@H]1C[C@@H]2c3cccc4[nH]cc(c34)C[C@H]2N(C)C1`, `COCCCNC(=O)[C@H]1N2C(=O)c3ccccc3C2SC1(C)C` (stereo partly specified) is 3.2-fold higher in solubility kinetic: 14.1 µg/mL (≈ 41.4 µM) for the first, 45.4 µg/mL (≈ 136 µM) for the second.

First: CCN1C(=O)C(C(=O)c2ccccc2)SC1=S (stereo unspecified)
Second: CSCCC1NC(=S)N(Cc2ccccc2)C1=O (stereo unspecified)
The solubility kinetic of the first is lower: 38.4 µg/mL (≈ 145 µM) for the first, over 42.1 µg/mL for the second.

First: Cc1nc(C)c(-c2csc(Nc3ccc(S(N)(=O)=O)cc3)n2)s1
Second: Cc1csc(NS(=O)(=O)c2ccc(Cl)cc2)n1
The solubility kinetic of the first is 140-fold lower: 0.3 µg/mL (≈ 0.819 µM) for the first, 42.4 µg/mL (≈ 147 µM) for the second.

First: Oc1cc2c(cc1CN1CCN(c3ccc(F)cc3)CC1)OCO2
Second: CC(C)CC(=O)N1CCN(Cc2ccccc2Br)CC1
The solubility kinetic of the first is 7.4-fold lower: 5.7 µg/mL (≈ 17.3 µM) for the first, 42 µg/mL (≈ 124 µM) for the second.

`COc1cc2c(cc1OC)C(c1ccccc1N)=NCC2` and `COc1cc(C(=O)OCCNC(=O)c2ccccc2)cc(OC)c1OC` cannot be ordered by solubility kinetic: over 42.4 µg/mL for the first, over 53.9 µg/mL for the second.

Compared with `CC(=O)c1ccc(N2CCN(c3ncccn3)CC2)c([N+](=O)[O-])c1`, `O=C(Nc1nccs1)c1ccc(-c2ccccc2[N+](=O)[O-])o1` is 7-fold lower in solubility kinetic: 39.2 µg/mL (≈ 120 µM) for the first, 5.6 µg/mL (≈ 17.8 µM) for the second.

Compared with `COc1ccc2[nH]c(=O)c(CN(C)C(=O)c3cccs3)cc2c1`, `CCC(=O)N(Cc1cc(=O)[nH]c2ccccc12)c1ccccc1OC` is higher in solubility kinetic: 12.4 µg/mL (≈ 37.8 µM) for the first, over 50.5 µg/mL for the second.

Compared with `NS(=O)(=O)c1cccc(NC(=O)CCC(=O)c2cccs2)c1`, `O=C(CNC(=O)c1cccs1)OCc1c(F)cccc1Cl` is lower in solubility kinetic: over 50.8 µg/mL for the first, 42.4 µg/mL (≈ 129 µM) for the second.

First: c1coc(CNc2nc3ccccc3s2)c1
Second: Cl.OC(CNCc1ccncc1)c1ccccc1 (stereo unspecified)
The solubility kinetic of the first is lower: 32.3 µg/mL (≈ 140 µM) for the first, over 39.7 µg/mL for the second.

`Cc1ccc(S(=O)(=O)N(C)CC(=O)NNC(=O)CCNS(=O)(=O)c2cccc(C)c2)cc1` and `COc1ccc(S(=O)(=O)NC(Cc2ccccc2)C(=O)O)cc1` (stereo unspecified) cannot be ordered by solubility kinetic: over 72.4 µg/mL for the first, over 50.3 µg/mL for the second.

Going from `CCOC(=O)c1c(C)n(Cc2ccc(F)cc2)c2ccc(O)cc12` to `O=C(CSCc1ccc(F)cc1)NCc1cccs1`, the solubility kinetic rises from under 0.7 µg/mL to 40.2 µg/mL (≈ 136 µM).

Going from `COc1cc(OC)c(OC)cc1CNCCNC(=O)c1ccco1` to `COc1ccc(S(=O)(=O)NCc2csc(C)n2)cc1OC`, the solubility kinetic rises from 44.5 µg/mL (≈ 133 µM) to over 49.3 µg/mL.

Compared with `Cc1ccc(OCCNC(=O)c2ccccc2F)cc1`, `COc1ccccc1NC(=O)c1c[nH]c2ccccc12` is higher in solubility kinetic: 36.5 µg/mL (≈ 134 µM) for the first, over 39.9 µg/mL for the second.

Going from `Cn1cccc1C1C(C#N)=C(N)OC2=C1C(=O)CC(C)(C)C2` (stereo unspecified) to `CC12CCC(C(=O)N3CCOCC3)([C@H](Br)C1=O)C2(C)C` (stereo partly specified), the solubility kinetic rises from 43.2 µg/mL (≈ 145 µM) to over 51.6 µg/mL.

Compared with `CC(=O)c1ccc(-n2c(CCC(=O)O)ccc2-c2ccccc2)cc1`, `Cc1ccc2[nH]c(C(=O)O)c(NC(=O)[C@@H]3C[C@@H]3c3ccccc3)c2c1` is higher in solubility kinetic: 41.5 µg/mL (≈ 124 µM) for the first, over 50.2 µg/mL for the second.

Compared with `COc1ccc(S(N)(=O)=O)cc1C(=O)OCC(=O)Nc1sccc1C#N`, `CCOC(=O)c1ncccc1NC(=O)CC(=O)Nc1cccnc1C(=O)OCC` is 3.9-fold higher in solubility kinetic: 15.1 µg/mL (≈ 38.2 µM) for the first, 58.2 µg/mL (≈ 145 µM) for the second.

First: O=C(Nc1cccc(C(F)(F)F)c1)c1cc[n+]([O-])cc1
Second: O=[N+]([O-])c1cc(C(F)(F)F)ccc1NCCc1ccccn1
The solubility kinetic of the first is higher: over 42.3 µg/mL for the first, 18.8 µg/mL (≈ 60.4 µM) for the second.

Compared with `O=C(Nc1ccc(F)c(Cl)c1)Nc1csc2ccccc12`, `Cc1nc(Cl)c(C(=O)Nc2cccc(F)c2)c(C)c1Cl` is 4.9-fold higher in solubility kinetic: 1 µg/mL (≈ 3.12 µM) for the first, 4.9 µg/mL (≈ 15.6 µM) for the second.

Compared with `CN(C)c1ccc(CNc2ccccn2)cc1`, `Cc1cc(=O)[nH]c(NCc2ccc(Cl)cc2)n1` is higher in solubility kinetic: 22.3 µg/mL (≈ 98.1 µM) for the first, over 37.5 µg/mL for the second.

Compared with `CC(C(=O)O)N1CCCCC1.Cl` (stereo unspecified), `CCc1ccccc1N(CC(=O)N1CCCCCC1)S(C)(=O)=O` is 1.8-fold higher in solubility kinetic: 24.3 µg/mL for the first, 43.5 µg/mL (≈ 129 µM) for the second.

First: Cc1cnc(NC(=O)c2ccccn2)s1
Second: CC(C)n1cc(C(N)=S)c(=O)n(Cc2ccccc2)c1=O
The solubility kinetic of the first is 3.2-fold higher: 29.3 µg/mL (≈ 134 µM) for the first, 9.1 µg/mL (≈ 30 µM) for the second.

`COCC1CCN(Cc2nc(COc3ccccc3)no2)C1` (stereo unspecified) and `C=CCn1c(C(CC)CC)nc2ccccc21` are within 1.5-fold of each other in solubility kinetic: 37.2 µg/mL (≈ 123 µM) for the first, 27.9 µg/mL (≈ 122 µM) for the second.

`O=S1(=O)CCN(OCc2ccc(F)cc2Cl)CC1` and `CC(C)C[C@H](NC(=O)NCc1ccc(F)cc1)C(=O)O` cannot be ordered by solubility kinetic: 43.1 µg/mL (≈ 147 µM) for the first, over 42.3 µg/mL for the second.

First: CCc1ccc(OCC(=O)OCC(=O)NC2CCCC(C)C2C)cc1 (stereo unspecified)
Second: Cc1ccc(CNC(=S)NC2CCCCC2)cc1
The solubility kinetic of the first is 3.5-fold lower: 9.2 µg/mL (≈ 26.5 µM) for the first, 32.3 µg/mL (≈ 123 µM) for the second.

Going from `Clc1nssc1=Nc1ccc(Br)cc1` to `CN(C(=O)C1CCC1C(=O)O)c1nc(-c2ccc(Cl)s2)cs1` (stereo unspecified), the solubility kinetic rises from 1.4 µg/mL (≈ 4.55 µM) to 42.6 µg/mL (≈ 119 µM) (30-fold).

Reference: PubChem BioAssay AID1996
